Measurements as given in US20180110795A1, “COMPOSITIONS AND METHODS FOR DETECTING AND TREATING PERIODONTAL DISEASE” (THE FORSYTH INSTITUTE, priority 2015, published 2018).

How the values were obtained:
Assay type in all cases: cell-based
oral plaque = test: Plaque bacteria plated on blood agar and cultured with or without TPP; details: plaque bacteria from four human subjects on blood agar, various concentrations of TPP
Method: Dental plaque is a biofilm that builds up on teeth and contains bacteria associated with cavities, gingivitis, and periodontitis. Plaque samples were obtained from four human subjects. Plaque bacteria from each subject was plated on blood agar and cultured in the presence or absence of various concentrations of Sodium tripolyphospate (TPP), which inhibits Cob(I)alamin adenosyltransferase.

oral microbial community = test: Principal component analysis of active community composition by 16S rRNA genes from cultures of plaque; details: cultures of plaque from a human subject, samples at 0, 3, 9 and 18 hours, all concentrations
Method: Principal component analysis was used to analyze changes in oral microbial community composition. Results of an analysis of the active community composition isolated from a human subject was carried out by analysis of 16S rRNA genes from cultures of plaque. The panel of species identified included 500 different species. Samples from the culture were taken at 0, 3, 9 and 18 hours.

Rothia dentocariosa = test: Active fraction of microbes by rRNA analysis in liquid culture of oral plaque; details: TPP at concentrations as low as 25 mM
Text: (§1) Oral plaque containing Streptococcus sanguinis was obtained from a human subject and cultured in liquid culture in the presence or absence of TPP. S. sanguinis is a gram positive bacteria that binds to the surface if the teeth, where it acts as a tether for the attachment of other bacteria that form dental plaque, and contributes to the development of caries and periodontal disease. S. Sangunis has all of the genes required for anaerobic cobalamin biosynthesis.
(§2) Microbes exist in a range of metabolic states (e.g., dormant, active and growing) and analysis of ribosomal RNA (rRNA) is frequently employed to identify the ‘active’ fraction of microbes in samples. […] This is of particular interest given that other bacterial species may utilize and or depend on the cobalamin synthesized by S. Sanguinis, thus making this species a keystone esential to maintain a mature biofilm.

S. Genus probe 1 = test: as above; details: TPP at concentrations as low as 25 mM
Text: as §1, §2

S. intermedius = test: as above; details: TPP at concentrations as low as 25 mM
Text: as §1, §2

Solobacterium moorei = test: as above; details: TPP at concentrations as low as 25 mM
Text: as §1, §2

Streptococcus sanguinis = test: as above; details: three hours of incubation
Text: as §1, §2

For `O=P(O)(O)OP(=O)(O)OP(=O)(O)O` [TPP, sodium tripolyphosphate], the oral plaque growth (oral plaque) was “completely inhibited oral plaque growth in a dose dependent manner”, the “change in composition of bacterial communities” value (oral microbial community) was “affected all of the bacterial communities in similar ways at all concentrations” and the “activity of Rothia dentocariosa” value (Rothia dentocariosa) was “significantly reduced”. The “activity of S. Genus probe 1” value (S. Genus probe 1) was “significantly reduced”, the “activity of S. intermedius” value (S. intermedius) was “significantly reduced” and the “activity of Solobacterium moorei” value (Solobacterium moorei) was “significantly reduced”. For the same compound, the “fraction of active S. Sanguinis vs control with no TPP” value (Streptococcus sanguinis; 25 mM TPP) was “significantly lower” and the “fraction of active S. Sanguinis vs control with no TPP” value (Streptococcus sanguinis; 50 mM TPP) was “significantly lower”.
